Data on three compounds can be found in patent US11639384B2, “Treatment of pediatric BCP-ALL patients with an anti-KIR antibody” (UNIVERSITY CHILDREN'S HOSPITAL TÜBINGEN, priority 2014, dated 2023).

“Also recorded” adds a separate entry of the source. Read-outs that look alike come from different tables or passages of the source.

For data set [1], the system named is KIR2DL2/3. Description: KIR receptor occupancy on cells from KIR2DL2/3+ patients. Format: in vivo, human.
Data set [2] relates to AML. As to the kind of experiment: Phase 1 overall survival of AML patients. To be noted: 1 and 3 mg/kg. Type of data set: in vivo, human.
Data set [3] concerns KIR receptor. To be noted: cited from earlier work.
Data set [4] has as its system AML. To be noted: cited from earlier work.
Data set [5] deals with HLA-Cw3+ and HLA-Cw4+ targets. To be noted: cited from earlier work.
Data set [6] deals with KIR2DL1 and KIR2DL2/3. To be noted: literature and WO 2006/003179; cited from earlier work.
The target in data set [7] is KIR2DS4 (Homo sapiens, UniProt P43632). To be noted: cited from earlier work.
For data set [8], the target named is KIR2DS3 (Homo sapiens, UniProt Q14952). To be noted: cited from earlier work.
Data set [9] has as its system KIR2DS1 and KIR2DS2. To be noted: cited from earlier work.
The test system of data set [10] is KIR2DL2/3. To be noted: cited from earlier work.
For data set [11] the following is noted: WO 2006/003179; cited from earlier work.
Data set [12] relates to CD45+ cells. As to the kind of experiment: In vivo treatment with 5-aza-cytidine: BM cytotoxicity. To be noted: low-dose, long-term treatment; huNSG and non-humanized control mice.
For data set [13], the system named is BM-derived NK cells. Description: In vivo treatment with 5-aza-cytidine: NK cell phenotype and subsets in BM. Further details: species or system huNSG mice.
The conditions of data set [14]: Troetel et al., 1972; cited from earlier work.
For data set [15], the system named is pediatric BCP-ALL. As to the kind of experiment: In vivo treatment with 5-aza-cytidine: leukemic burden in BM. To be noted: non-humanized control NSG mice, low-dose regimen.
The subject of data set [16] is KIR2DL1 and KIR2DL2/3. As to the kind of experiment: KIR binding specificity of anti-KIR mAbs: inhibitory KIR2DL. Further details: species or system human.
Data set [17] has as its system NALM-16 cells. Description: In vitro cytotoxicity of sorted KIR+ NKAES cells with KIR blockade. Format: cell-based. To be noted: 15 μg/ml, NALM-16, E:T ratio 2:1. The procedure: Target cells or cell lines were labeled with 0.5 μM CFSE (Vybrant CFDA SE Cell Tracer Kit®, Invitrogen, Germany) 1 day prior to use. NKAES cells were thawed, cultivated overnight and subsequently sorted into KIR^+ and KIR^− subsets following labeling with anti-CD158a (clone HP3E4 recognizing KIR2DL1/S1/S4), anti-CD158b (clone GL183 recognizing KIR2DL2/S2/L3) and anti-CD158e (clone DX9 recognizing 3DL1). KIR^+ and KIR^− NK cells were used as effector cells and cultured overnight in the presence of 100 IU/ml IL2. Co-incubation with NALM-16 cells was performed in triplicates at ratios between 10:1 and 2:1 for 5 h. Following staining with ARD-Ax350, cells were washed and analyzed. To correct for spontaneously occurring cell death, target cell monoculture controls were included in every experiment. The percentage of specific cytotoxicity was calculated as follows: (% CFSE^+ARD^+ dead targets−% CFSE^+ARD^+ spontaneously dead targets)/(100−% CFSE^+ ARD^+ spontaneously dead targets)×100%.
In vitro cytotoxicity was assayed as described in Example 1. […] Following staining with ARD-Ax350, cells were washed and analyzed.

In data set [18] the test system is inhibitory KIR. Description: Lirilumab treatment of huNSG mice: inhibitory KIR expression. Format: in vivo. To be noted: 250 μg/mouse, preliminary data. The procedure: HuNSG mice were treated 14 days before the injection of leukemia cells with a complex of IL15/IL15Ra. One day prior to blasts injection, NK cells were additionally activated by intravenous injection of polyI:C and IPH2102. On the following day blasts were injected, and after 24 h the extent of tumor burden was quantified using 8-11 color flow cytometry.

The subject of data set [19] is BCP-ALL sample P23T. As to the kind of experiment: Lirilumab in NSG mice with adoptively transferred KIR-KIRL-matched NK cells: tumor burden. Format: in vivo. To be noted: P23T blasts, KIR-KIRL-matched activated NK cells, 2250 μg/mouse i.v., 24 h, preliminary data. The procedure: Naïve NSG mice were injected with blasts, followed by the injection of activated NK cells and subsequent intravenous injection of IPH2102 (2250 μg/mouse). Mice were euthanized after 24 h to quantify tumor burden. […] Data depicted in FIGS. 13B and D represent preliminary data performed in a small number of mice. The data provided in Examples 1-4 support the concept that NK cell immune-therapy, ideally performed with KIR-KIRL-mismatched donors, should have a role in the treatment of pediatric BCP-ALL disease.

KIR2DS4, sequence (P43632 22-304): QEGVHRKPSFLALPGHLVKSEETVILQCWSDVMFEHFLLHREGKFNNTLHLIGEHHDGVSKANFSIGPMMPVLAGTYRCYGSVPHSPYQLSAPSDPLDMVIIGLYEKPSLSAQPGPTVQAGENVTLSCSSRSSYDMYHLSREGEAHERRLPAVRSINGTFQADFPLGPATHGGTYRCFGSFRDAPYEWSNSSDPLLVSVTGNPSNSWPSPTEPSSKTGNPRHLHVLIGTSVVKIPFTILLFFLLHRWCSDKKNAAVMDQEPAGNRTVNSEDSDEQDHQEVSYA
KIR2DS3, sequence (Q14952 22-304): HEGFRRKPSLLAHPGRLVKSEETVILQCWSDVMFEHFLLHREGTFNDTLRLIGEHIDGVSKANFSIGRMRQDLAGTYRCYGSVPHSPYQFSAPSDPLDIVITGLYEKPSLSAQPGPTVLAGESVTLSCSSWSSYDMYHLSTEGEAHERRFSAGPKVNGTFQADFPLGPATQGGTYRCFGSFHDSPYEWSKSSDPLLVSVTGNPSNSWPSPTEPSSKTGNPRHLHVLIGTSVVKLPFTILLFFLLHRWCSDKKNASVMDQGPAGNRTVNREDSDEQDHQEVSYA

With “1-7F9: KIR2DL-cross-reactive fully human IgG4 kappa mAb; H chain SEQ ID NO:3, L chain SEQ ID NO:5”, the receptor occupancy result in data set [1] (0.2 mg/kg and 2 mg/kg, 28-day period) is reported as “good receptor occupancy throughout the 28-day period”. The “improvement of OS versus <0.3 mg/kg group” value in data set [2] was around 18 months. The entries for the “duration of full (>90%) KIR receptor occupancy” value in [3] (0.075 mg/kg), in data set [3] (1 mg/kg) and in data set [3] (3 mg/kg) were 1 week, 2 weeks and “at least 4 weeks”, respectively. The “duration of KIR saturation (>30% KIR occupancy)” value in data set [3] (3 mg/kg) was 24-32 weeks. Also, the “overall survival (OS)” value in data set [4] (6 AML patients, dosages of 1 and 3 mg/kg) is recorded as 29.7 months; in data set [4] (16 AML patients, <0.3 mg/kg), 11.8 months. For the same compound, the “reconstitution of cell lysis by NK cells against Cw4-positive targets” value in data set [5] (WO 2005/003168, Example 4) is reported as “almost completely reconstitutes lysis”. Also, the “potentiation of NK cell cytolytic activity on HLA-Cw3+ and HLA-Cw4+ targets” value in [5] (WO 2005/003168) is “strongly potentiate NK cell cytolytic activity”. For the same compound, in data set [6], the “KIRs bound / recognized” value was “binds specifically to both KIR2DL1 and KIR2DL2/3”. Also, in [7], the “binding to KIR2DS4” value is “does not bind to the stimulatory KIR, KIR2DS4; also recorded: none of 1-7F9, lirilumab and 1-4F1 binds to KIR2DS4”. The “binding to KIR2DS3” value in data set [8] is on record as “does not bind to the stimulatory KIR, KIR2DS3”. For the same compound, the “binding to KIR2DS1 and KIR2DS2” value in data set [9] is “bind to KIR2DS1 and KIR2DS2”. The “blocking of binding of group 1 HLA-C (HLA-Cw3) to KIR2DL2/3” value in [10] is given as “blocks”. The IgG4 half-molecule formation entry in [11] is reported as “did not reveal half-molecule formation”.

Turning to `Nc1ncn([C@@H]2O[C@H](CO)[C@@H](O)[C@H]2O)c(=O)n1` [5-aza-cytidine], the “BM cytotoxicity: human and murine CD45+ cells” value in [12] is given as “statistically insignificant reduction; also recorded: does not exert statistically relevant BM cytotoxicity”. Moreover, the “expression of inhibitory (KIRs, NKG2A) and activating (NKp44, NKG2D) NK cell receptors” value in data set [13] (BM-derived NK cells of huNSG mice, low doses) was “did not significantly modulate the expression; also recorded: does not significantly alter the expression”. The “numbers of immature NK cell precursors and mature NK cell subsets in BM” value in data set [13] (huNSG mice, low-dose long-term treatment) was “distinctly higher numbers of both immature and mature NK cell subsets; also recorded: clearly higher numbers; also recorded: induces the expression of BM-residing NK cell precursors”. In addition, the half-life result in data set [14] is listed as “less than 4 h”. Moreover, in data set [15], the “direct cytotoxic effect on pediatric BCP-ALL” value is given as “largely excluded; also recorded: does not exert relevant direct cytotoxic effects”.

For “lirilumab: 1-7F9(S241P) variant, human IgG4 anti-KIR2DL1/2/3 mAb; H chain SEQ ID NO:4, L chain SEQ ID NO:5”, the KIR receptor occupancy in data set [1] (1 mg/kg, over a 28-day period) was around 100%. Also, in [16], the “effect of S241P mutation on affinity for KIR2DL1 and KIR2DL2/3” value is “equalizes the affinity for KIR2DL1 and KIR2DL2/3”. For the same compound, the “specificity and affinity of binding to KIR targets” value in data set [16] (inferred from identical CDRs and variable regions) is “the same as that exhibited by 1-7F9”. In data set [17], the “effect on cytotoxicity of KIR+ NK cells of KIR-KIRL-matched donors” value is “distinctly enhanced”. Moreover, the “effect on cytotoxicity of KIR+ NK cells of KIR-KIRL-mismatched donors” value in [17] is “did not respond to inhibitory KIR blockade”. Further, the “levels of inhibitory KIR expression” value is listed as “very low levels; also recorded: barely detectable levels” in [18] and “negligible” in data set [18] (listed as lirilumab (IPH2102)). Further, in data set [19], the tumor burden result was “significant reduction of tumor burden”. In addition, in data set [7], the “binding to KIR2DS4” value is “none of 1-7F9, lirilumab and 1-4F1 binds to KIR2DS4”. Besides, in [9], the “binding to KIR2DS1 and KIR2DS2” value is “bind to KIR2DS1 and KIR2DS2”.
